From patent US11679065B2, “Compositions with sulfur having enhanced efficacy and aesthetics” (The Procter & Gamble Company, priority 2020, dated 2023)

Assays:
[1] = test system: Malassezia; assay: Minimal inhibitory concentration of sulfur (known value); assay type: cell-based; details: generally accepted MIC, gray box in FIGS. 1-4
Experimental: A dissolution and diffusion model is utilized to help dimension sulfur solubility in sebum over a 24 hour period. The model predicts where sulfur concentration will rise above the minimal inhibitory concentration (MIC is known to be in the range of 10-50 ppm for sulfur), for the fungus that causes dandruff (Malassezia). The model factors in sulfur dissolution varying sebum thickness and sebum production rate over the 24 hour period as well as a loss term for sulfur migration into the scalp/stratum corneum. FIGS. 1-4) show simulation outputs for mean sulfur particles sizes, 2, 34, 100 and 150 micron sulfur particles respectively wherein each graph is a compilation of curves representing variations in initial sebum thickness and production rate. The gray box in each figure represents a range of sulfur concentrations that encompass the generally accepted MIC (log 10(MIC) range is 1-1.7). It is observed from the simulations that as particle size increases, the approximate number of hours that sulfur concentration is above the MIC expands until the particle size of about 150 microns, wherein the dissolution of sulfur in sebum becomes the rate limiting step and the concentration of sulfur never exceeds the MIC needed for a dandruff benefit.

[2] = test system: Malassezia; details: fungus that causes dandruff (Malassezia); known range; cited from earlier work

log 10(MIC) range [1]: 1-1.7
Compound: S1SSSSSSS1 [Sulfur]
minimal inhibitory concentration (MIC) [2]: 10-50 ppm
